Values joined by “and” are separate entries in the source; they are usually repeats but may differ in a detail not shown here. Identical values can stand only once. Toxic doses and inconclusive results are not listed. Peptide text beside a SMILES is read from it. * marks the point of attachment. X13 = CC(C)CC(NN)C(=O)*
Test system: P388 leukemia ip, CD2F1 mice, survival T/C
Test: NCI In Vivo Anticancer Drug Screen. Data for tumor model P388 Leukemia (intraperitoneal) in CD2F1 (CDF1) mice
Conditions: endpoint: median survival time, higher = longer survival
Outline: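 Mice carrying the transplanted tumor received test compound or vehicle. Survival was recorded in each group, and the value is the treated-group measurement divided by that of the vehicle-treated control group.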

[1] = dose: 200.0 mg/kg/injection, schedule: Q01DX005 (ip), vehicle: Klucel (hydroxypropylcellulose) (HPC)
[2] = dose: 60.0 mg/kg/injection, schedule: Q01DX005 (ip), vehicle: saline
[3] = dose: 50.0 mg/kg/injection, schedule: Q01DX009 (ip), vehicle: Klucel (hydroxypropylcellulose) (HPC)
[4] = dose: 100.0 mg/kg/injection, schedule: Q01DX009 (ip), vehicle: Klucel (hydroxypropylcellulose) (HPC)
[5] = dose: 50.0 mg/kg/injection, schedule: Q01DX005 (ip), vehicle: Klucel (hydroxypropylcellulose) (HPC)
[6] = dose: 100.0 mg/kg/injection, schedule: Q01DX005 (ip), vehicle: Klucel (hydroxypropylcellulose) (HPC)

SMILES: CC1CN=C(c2ccc(NC(=O)Nc3ccc(C4=NCC(C)N4)cc3)cc2)N1 (centres undefined)
- T/C (dose: 0.4 mg/kg/injection, schedule: Q01DX005 (ip), vehicle: saline with Tween-80): 106 % of control
- T/C (dose: 0.78 mg/kg/injection, schedule: Q01DX005 (ip), vehicle: saline with Tween-80): 104 % of control
- T/C (dose: 1.56 mg/kg/injection, schedule: Q01DX005 (ip), vehicle: saline with Tween-80): 117 % of control and 118 % of control
- T/C (dose: 3.13 mg/kg/injection, schedule: Q01DX005 (ip), vehicle: saline with Tween-80): 117 % of control
- T/C (dose: 6.25 mg/kg/injection, schedule: Q01DX005 (ip), vehicle: saline with Tween-80): 110 % of control

SMILES: O=C(O)c1ccccc1C(=O)Nc1ccccc1C(F)(F)F
- T/C (dose: 178.0 mg/kg/injection, schedule: Q01DX009 (ip), vehicle: saline with Tween-80): 110 % of control
- T/C (dose: 266.0 mg/kg/injection, schedule: Q01DX009 (ip), vehicle: saline with Tween-80): 104 % of control
- T/C (dose: 400.0 mg/kg/injection, schedule: Q01DX009 (ip), vehicle: saline with Tween-80): 101 % of control

SMILES: c1ccc(N2CCCCCN2c2ccccc2)cc1
- T/C (dose: 25.0 mg/kg/injection, schedule: Q01DX001 (ip), vehicle: saline with Tween-80): 100 % of control
- T/C (dose: 50.0 mg/kg/injection, schedule: Q01DX001 (ip), vehicle: saline with Tween-80): 100 % of control
- T/C (dose: 100.0 mg/kg/injection, schedule: Q01DX001 (ip), vehicle: saline with Tween-80): 100 % of control
- T/C (dose: 200.0 mg/kg/injection, schedule: Q01DX001 (ip), vehicle: saline with Tween-80): 92 % of control

SMILES: COc1ccc2cc1Oc1ccc(cc1)C[C@H]1c3c(cc(OC)c(O)c3Oc3cc4c(cc3OC)CCN(C)[C@@H]4C2)CCN1C
- T/C (dose: 25.0 mg/kg/injection, schedule: Q01DX001 (ip), vehicle: saline): 101 % of control
- T/C (dose: 50.0 mg/kg/injection, schedule: Q01DX001 (ip), vehicle: saline): 106 % of control
- T/C (dose: 100.0 mg/kg/injection, schedule: Q01DX001 (ip), vehicle: saline): 106 % of control
- T/C (dose: 200.0 mg/kg/injection, schedule: Q01DX001 (ip), vehicle: saline): 100 % of control

SMILES: O=C(Nc1ccccc1)OC(CN1CCCCC1)C(CN1CCCCC1)OC(=O)Nc1ccccc1 (centres undefined)
- T/C (dose: 12.5 mg/kg/injection, schedule: Q01DX005 (ip), vehicle: Klucel (hydroxypropylcellulose) (HPC)): 99 % of control
- T/C (dose: 25.0 mg/kg/injection, schedule: Q01DX005 (ip), vehicle: Klucel (hydroxypropylcellulose) (HPC)): 91 % of control
- T/C [1]: 87 % of control

SMILES: C=CCOc1cc2c(cc1Cc1cc(OC)c(OC)c(OC)c1)OCO2
- T/C [2]: 100 % of control
- T/C (dose: 120.0 mg/kg/injection, schedule: Q01DX005 (ip), vehicle: saline): 99 % of control

SMILES: CCOC(=O)CCS(=O)c1ccccc1 (centres undefined)
- T/C [3]: 114 % of control
- T/C [4]: 109 % of control
- T/C (dose: 200.0 mg/kg/injection, schedule: Q01DX009 (ip), vehicle: Klucel (hydroxypropylcellulose) (HPC)): 104 % of control

SMILES: COc1ccc(C2NC(C(=O)O)CS2)cc1OC (centres undefined)
- T/C (dose: 50.0 mg/kg/injection, schedule: Q01DX009 (ip), vehicle: suspension in saline): 95 % of control
- T/C (dose: 100.0 mg/kg/injection, schedule: Q01DX009 (ip), vehicle: suspension in saline): 95 % of control
- T/C (dose: 200.0 mg/kg/injection, schedule: Q01DX009 (ip), vehicle: suspension in saline): 87 % of control and 97 % of control

SMILES: c1ccc2c(c1)[nH]c1c2nc2ncccn21
- T/C [5]: 106 % of control
- T/C [6]: 106 % of control

SMILES: Brc1cc2c(cc1C=Nc1ccc(OCc3ccccc3)cc1)OCO2
- T/C (dose: 25.0 mg/kg/injection, schedule: Q01DX009 (ip), vehicle: other): 98 % of control
- T/C (dose: 50.0 mg/kg/injection, schedule: Q01DX009 (ip), vehicle: other): 103 % of control
- T/C (dose: 100.0 mg/kg/injection, schedule: Q01DX009 (ip), vehicle: other): 97 % of control
- T/C (dose: 200.0 mg/kg/injection, schedule: Q01DX009 (ip), vehicle: other): 95 % of control
- T/C (dose: 400.0 mg/kg/injection, schedule: Q01DX009 (ip), vehicle: other): 86 % of control

SMILES: O=S(=O)(O)c1ccc(Cl)c(N=N/C=N/Nc2cc(S(=O)(=O)O)ccc2Cl)c1
- T/C [5]: 100 % of control
- T/C [6]: 98 % of control
- T/C [1]: 100 % of control

SMILES: O=c1cc(C(F)(F)F)c2cc3c(cc2o1)NCCC3
- T/C (dose: 60.0 mg/kg/injection, schedule: Q01DX005 (ip), vehicle: saline with Tween-80): 89 % of control
- T/C (dose: 120.0 mg/kg/injection, schedule: Q01DX005 (ip), vehicle: saline with Tween-80): 86 % of control

SMILES: CCc1noc2cc(-c3ccccc3)n(C)c(=O)c12
- T/C [5]: 100 % of control
- T/C [6]: 104 % of control
- T/C [1]: 105 % of control

SMILES: O=C(O)C(=O)O.O=C([O-])C(=O)O.O=C([O-])C(=O)O.[Fe+3].[K+]
- T/C (dose: 30.0 mg/kg/injection, schedule: Q01DX005 (ip), vehicle: saline): 100 % of control
- T/C [2]: 99 % of control

SMILES: Cc1ccc(NCCN(C)C)c2c(=O)c3cc(O)ccc3sc12
- T/C (dose: 1.0 mg/kg/injection, schedule: Q01DX009 (ip), vehicle: saline with Tween-80): 103 % of control
- T/C (dose: 8.0 mg/kg/injection, schedule: Q01DX009 (ip), vehicle: Klucel (hydroxypropylcellulose) (HPC)): 180 % of control
- T/C (dose: 16.0 mg/kg/injection, schedule: Q01DX009 (ip), vehicle: Klucel (hydroxypropylcellulose) (HPC)): 170 % of control
- T/C (dose: 16.0 mg/kg/injection, schedule: Q01DX009 (ip), vehicle: saline with Tween-80): 151 % of control
- T/C (dose: 32.0 mg/kg/injection, schedule: Q01DX009 (ip), vehicle: Klucel (hydroxypropylcellulose) (HPC)): 191 % of control
- T/C (dose: 32.0 mg/kg/injection, schedule: Q01DX009 (ip), vehicle: saline with Tween-80): 157 % of control
- T/C (dose: 37.0 mg/kg/injection, schedule: Q01DX009 (ip), vehicle: Klucel (hydroxypropylcellulose) (HPC)): 97 % of control
- T/C [3]: 234 % of control
- T/C (dose: 64.0 mg/kg/injection, schedule: Q01DX009 (ip), vehicle: Klucel (hydroxypropylcellulose) (HPC)): 265 % of control
- T/C [4]: 87 % of control

SMILES: C=C1[C@@H](OC(C)=O)C[C@@H]2C[C@]3(C)C(OC(C)=O)CC(C)(C)[C@@H]3C12O (some centres undefined)
- T/C (dose: 1.75 mg/kg/injection, schedule: Q01DX005 (ip), vehicle: saline): 98 % of control
- T/C (dose: 3.5 mg/kg/injection, schedule: Q01DX005 (ip), vehicle: saline): 100 % of control
- T/C (dose: 7.0 mg/kg/injection, schedule: Q01DX005 (ip), vehicle: saline): 97 % of control

SMILES: CC(C)CC(NN)C(=O)NC(CCCN=C(N)N)C(=O)NC(CCCN=C(N)N)C(=O)NC(C)C(=O)NC(CO)C(=O)NC(C(=O)NC(C)C(=O)O)C(C)C (centres undefined) (X13-RRASVA-OH; configuration not given here)
- T/C (dose: 4.5 mg/kg/injection, schedule: Q01DX009 (ip), vehicle: Klucel (hydroxypropylcellulose) (HPC)): 101 % of control
- T/C (dose: 9.0 mg/kg/injection, schedule: Q01DX009 (ip), vehicle: Klucel (hydroxypropylcellulose) (HPC)): 94 % of control
- T/C (dose: 18.0 mg/kg/injection, schedule: Q01DX009 (ip), vehicle: Klucel (hydroxypropylcellulose) (HPC)): 98 % of control
- T/C (dose: 36.0 mg/kg/injection, schedule: Q01DX009 (ip), vehicle: Klucel (hydroxypropylcellulose) (HPC)): 96 % of control

SMILES: N#CCS(=O)(=O)OCCCl
- T/C (dose: 12.5 mg/kg/injection, schedule: Q01DX005 (ip), vehicle: saline with Tween-80): 120 % of control
- T/C (dose: 37.5 mg/kg/injection, schedule: Q01DX005 (ip), vehicle: saline with Tween-80): 151 % of control

SMILES: Sc1nc2ccccc2s1.Sc1nc2ccccc2s1.Sc1nc2ccccc2s1.Sc1nc2ccccc2s1.[Cl][Rh][Cl]
- T/C (dose: 50.0 mg/kg/injection, schedule: Q01DX009 (ip), vehicle: saline with Tween-80): 93 % of control
- T/C (dose: 100.0 mg/kg/injection, schedule: Q01DX009 (ip), vehicle: saline with Tween-80): 101 % of control
- T/C (dose: 200.0 mg/kg/injection, schedule: Q01DX009 (ip), vehicle: saline with Tween-80): 101 % of control

SMILES: O=C(N/N=C/c1ccccc1[O-])c1ccccc1O.O=C(N/N=C/c1ccccc1[O-])c1ccccc1O.[Fe+2]
- T/C (dose: 60.0 mg/kg/injection, schedule: Q01DX005 (ip), vehicle: Klucel (hydroxypropylcellulose) (HPC)): 103 % of control
- T/C (dose: 120.0 mg/kg/injection, schedule: Q01DX005 (ip), vehicle: Klucel (hydroxypropylcellulose) (HPC)): 108 % of control
- T/C (dose: 240.0 mg/kg/injection, schedule: Q01DX005 (ip), vehicle: Klucel (hydroxypropylcellulose) (HPC)): 94 % of control

SMILES: Fc1ccc(C2SCCCS2)cc1
- T/C (dose: 50.0 mg/kg/injection, schedule: Q01DX009 (ip), vehicle: saline): 92 % of control
- T/C (dose: 100.0 mg/kg/injection, schedule: Q01DX009 (ip), vehicle: saline): 92 % of control
- T/C (dose: 200.0 mg/kg/injection, schedule: Q01DX009 (ip), vehicle: saline): 101 % of control

SMILES: CC(=O)c1ccc2oc(C(C)=O)cc2c1
- T/C (dose: 2.5 mg/kg/injection, schedule: Q01DX009 (ip), vehicle: saline with Tween-80): 97 % of control
- T/C (dose: 5.0 mg/kg/injection, schedule: Q01DX009 (ip), vehicle: saline with Tween-80): 96 % of control
